Assay results: the supplement of paper PMC4862054

How the values were obtained:
Settings in all cases: incubation time: 72 h
BT-474 [1] = test: normalised response (% of control), CellTox Green; higher = less cell death (100 = DMSO, 0 = benzethonium chloride kill control)
Procedure, shortened: (§1)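 Each entry is the normalised signal at a single concentration within a series. The series comprised 5 concentrations in 10-fold steps over a compound-specific 10,000-fold range, placed in 384-well plates into which breast cancer cell lines were seeded as 20 µl suspension and incubated 72 h. CellTox Green (485/520 nm) fluorescence and then CellTiter-Glo luminescence were read, with signals normalised per plate to 0.1 % DMSO (100) and a positive kill control (0).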

BT-549 [2] = test: as above
Procedure, shortened: as §1

CAL-120 [3] = test: as above
Procedure, shortened: as §1

CAL-148 [4] = test: as above
Procedure, shortened: as §1

CAL-51 [5] = test: as above
Procedure, shortened: as §1

CAL-85-1 [6] = test: as above
Procedure, shortened: as §1

DU-4475 [7] = test: as above
Procedure, shortened: as §1

HCC1143 [8] = test: as above
Procedure, shortened: as §1

HCC1599 [9] = test: as above
Procedure, shortened: as §1

HDQ-P1 [10] = test: as above
Procedure, shortened: as §1

Hs578T [11] = test: as above
Procedure, shortened: as §1

MCF-10A [12] = test: as above
Procedure, shortened: as §1

MDA-MB-231 [13] = test: as above
Procedure, shortened: as §1

MDA-MB-436 [14] = test: as above
Procedure, shortened: as §1

MDA-MB-453 [15] = test: as above
Procedure, shortened: as §1

MDA-MB-468 [16] = test: as above
Procedure, shortened: as §1

MFM-223 [17] = test: as above
Procedure, shortened: as §1

BT-474 [18] = test: normalised response (% of control), CellTiter-Glo; higher = more viable cells (100 = DMSO, 0 = benzethonium chloride kill control)
Description: (§2)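 DSRT, 72 h incubation, CellTox Green / CellTiter-Glo readout. Signal is normalised to DMSO and benzethonium chloride controls. Value is the normalised response at dose 3.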

BT-549 [19] = test: as above
Description: as §2

CAL-120 [20] = test: as above
Description: as §2

CAL-148 [21] = test: as above
Description: as §2

CAL-51 [22] = test: as above
Description: as §2

CAL-85-1 [23] = test: as above
Description: as §2

DU-4475 [24] = test: as above
Description: as §2

HCC1143 [25] = test: as above
Description: as §2

HCC1599 [26] = test: as above
Description: as §2

HCC1937 [27] = test: as above
Description: as §2

HDQ-P1 [28] = test: as above
Description: as §2

Hs578T [29] = test: as above
Description: as §2

MCF-10A [30] = test: as above
Description: as §2

MDA-MB-231 [31] = test: as above
Description: as §2

MDA-MB-436 [32] = test: as above
Description: as §2

MDA-MB-453 [33] = test: as above
Description: as §2

MDA-MB-468 [34] = test: as above
Description: as §2

MFM-223 [35] = test: as above
Description: as §2

SK-BR-3 = test: as above
Description: as §2

HCC1937 [36] = test: normalised response (% of control), CellTox Green; higher = less cell death (100 = DMSO, 0 = benzethonium chloride kill control)
Procedure, shortened: as §1

Structure (SMILES) | normalised response (BT-474 [1]) [%] | normalised response (BT-549 [2]) [%] | normalised response (CAL-120 [3]) [%] | normalised response (CAL-148 [4]) [%] | normalised response (CAL-51 [5]) [%] | normalised response (CAL-85-1 [6]) [%] | normalised response (DU-4475 [7]) [%] | normalised response (HCC1143 [8]) [%] | normalised response (HCC1599 [9]) [%] | normalised response (HDQ-P1 [10]) [%] | normalised response (Hs578T [11]) [%] | normalised response (MCF-10A [12]) [%] | normalised response (MDA-MB-231 [13]) [%] | normalised response (MDA-MB-436 [14]) [%] | normalised response (MDA-MB-453 [15]) [%] | normalised response (MDA-MB-468 [16]) [%] | normalised response (MFM-223 [17]) [%] | normalised response (BT-474 [18]) [%] | normalised response (BT-549 [19]) [%] | normalised response (CAL-120 [20]) [%] | normalised response (CAL-148 [21]) [%] | normalised response (CAL-51 [22]) [%] | normalised response (CAL-85-1 [23]) [%] | normalised response (DU-4475 [24]) [%] | normalised response (HCC1143 [25]) [%] | normalised response (HCC1599 [26]) [%] | normalised response (HCC1937 [27]) [%] | normalised response (HDQ-P1 [28]) [%] | normalised response (Hs578T [29]) [%] | normalised response (MCF-10A [30]) [%] | normalised response (MDA-MB-231 [31]) [%] | normalised response (MDA-MB-436 [32]) [%] | normalised response (MDA-MB-453 [33]) [%] | normalised response (MDA-MB-468 [34]) [%] | normalised response (MFM-223 [35]) [%] | normalised response (SK-BR-3) [%] | normalised response (HCC1937 [36]) [%]
CN1CCC(COc2cnc(-c3cccc(Cn4nc(-c5cccc(C#N)c5)ccc4=O)c3)nc2)CC1 (10 nM) | 94.1 | 103 | 95.4 | 108 | 83.9 | 108 | 99.5 | 89.6 | 101 | 115 | 76.3 | 70 | 98.5 | 88.8 | 100 | 73.8 | 103 | 96.7 | 104 | 98.8 | 92.9 | 64.8 | 97.2 | 99 | 101 | 100 | 94.6 | 96.4 | 92.8 | 94.9 | 102 | 89 | 89.2 | 93.2 | 89.8 | 80.8 | –
COc1cc(Nc2ncc3c(n2)-c2ccc(Cl)cc2C(c2c(F)cccc2OC)=NC3)ccc1C(=O)O [Alisertib] (100 nM) | 91.7 | 96.1 | 92.8 | 90.1 | 27.8 | 77.7 | 89.9 | 75 | 92.3 | 101 | -59.3 | 68.7 | 69.8 | 68.9 | 93.9 | 18.6 | 97 | 77.2 | 73.2 | 78.1 | 102 | 69.1 | 63.7 | 67 | 71.2 | 80.3 | 82.8 | 87 | 74.2 | 81.2 | 84 | 67.6 | 62 | 33.2 | 76.3 | 67.9 | 85.9
Nc1ccn([C@@H]2O[C@H](CO)[C@@H](O)[C@@H]2O)c(=O)n1 [Cytarabine] (100 nM) | 104 | 113 | 109 | 75.5 | 88.1 | 103 | 112 | 99.4 | 111 | 101 | 106 | 102 | 115 | 81.4 | 108 | 103 | 102 | 97.3 | 94 | 101 | 74.7 | 85.8 | 96.5 | 90.4 | 98.8 | 88.6 | 98.9 | 96.7 | 96.7 | 110 | 99 | 95.1 | 141 | 94.6 | 95.3 | 80.1 | –
Cc1c2oc3c(C)ccc(C(=O)N[C@@H]4C(=O)N[C@H](C(C)C)C(=O)N5CCC[C@H]5C(=O)N(C)CC(=O)N(C)[C@@H](C(C)C)C(=O)O[C@@H]4C)c3nc-2c(C(=O)N[C@@H]2C(=O)N[C@H](C(C)C)C(=O)N3CCC[C@H]3C(=O)N(C)CC(=O)N(C)[C@@H](C(C)C)C(=O)O[C@@H]2C)c(N)c1=O [Dactinomycin] (10 nM) | 102 | 80.4 | 102 | 17.1 | -32.3 | 69.3 | 74.7 | 117 | 99.3 | 82.8 | 104 | 109 | 43.8 | 90.8 | 91.5 | 84 | 104 | 64.6 | 13.3 | 65 | 27.2 | 20.4 | 51.7 | 3.42 | 54.7 | 102 | 51 | 41.5 | 58.7 | 52.2 | 62.1 | 53.4 | 84.7 | 18.7 | 88.9 | 59.2 | 107
CCN1CCN(c2ccc(Nc3cc(N(C)C(=O)Nc4c(Cl)c(OC)cc(OC)c4Cl)ncn3)cc2)CC1 [NVP-BGJ398] (10 nM) | 98.8 | 95 | 96.6 | 101 | 76 | 112 | 98.7 | 81.9 | 91.5 | – | 92 | 100 | 99.2 | 103 | 99.5 | 154 | 89.8 | 102 | 99.4 | 91.4 | 97.2 | 58.6 | 100 | 97.8 | 100 | 115 | 96.9 | 104 | 99.9 | 98.1 | 93.2 | 95.2 | 92.7 | 99.4 | 95.8 | 97.7 | 106
C=CCNC1=C2C[C@@H](C)C[C@H](OC)[C@H](O)[C@@H](C)/C=C(\C)[C@H](OC(N)=O)[C@@H](OC)/C=C\C=C(/C)C(=O)NC(=CC1=O)C2=O [Tanespimycin] (100 nM) | 76.6 | 91.7 | 90.5 | 71.8 | 82.5 | 74.2 | 93.8 | 90.8 | 103 | 81.7 | 100 | 69.5 | – | 67.8 | 84.5 | 111 | 99 | 99.3 | 47.2 | 85.8 | 85.5 | 47.6 | 98.8 | 86.4 | 49.5 | 93.8 | 70.8 | 61.1 | 66.7 | 50 | 95.9 | 47.3 | 27.9 | 97.3 | 53.7 | 44.2 | 98.7
C[C@]1(c2nc3c(C(N)=O)cccc3[nH]2)CCCN1 [Veliparib] (100 nM) | 101 | 108 | 98.3 | 103 | 96.9 | 105 | 102 | 95.9 | 115 | 109 | 111 | – | 95.9 | 61.1 | 103 | 107 | 108 | 98.3 | 101 | 96.5 | 96.4 | 76.4 | 105 | 103 | 100 | 102 | 101 | 102 | 102 | 96.5 | 105 | 99 | 102 | 96.5 | 98.6 | 95.2 | 87.8
CS(=O)(=O)c1ccc(C(=O)Nc2ccc(Cl)c(-c3ccccn3)c2)c(Cl)c1 [Vismodegib] (100 nM) | 92.5 | 86.2 | 98.9 | – | 98.4 | 105 | 101 | 99.2 | 100 | 108 | 80 | 96.2 | 72.6 | 91.3 | 93.1 | 87 | 88.8 | 94.4 | 101 | 93.1 | 94.6 | 109 | 98.8 | 99.4 | 94.1 | 95.1 | 99 | 99 | 95.5 | 93 | 94.3 | 96 | 88.4 | 96.8 | 94.4 | 92.7 | 97.9
